Test results reported in patent publication US5811450A, “Thiepane compounds” (Gilead Sciences, Inc., priority 1996, dated 1998).
Read-outs that look alike come from different tables or passages of the source.

Experiments:
[1] = molecular target: T1, HIV protease (Human immunodeficiency virus type 1 group M subtype B, UniProt P04585); assay: biochemical
T1 construct: fluorometric method for measurement of HIV-protease (HIV-PR) activity utilizing a synthetic peptide substrate
Method: Compositions to be subjected to enzyme assay are lyophilited and diluted in DMSO to 100-1000 μM. Compositions having apparent IC50 <1 μm are diluted to 100 μM.
The assay is a fluorometric method for measurement of HIV-protease (HIV-PR) activity utilizing a synthetic peptide substrate for HIV-PR based on that described by Matayoshi, E.D.; Wang, G.T.; Krafft, G.A.; and Erickson, J.W.; Science, 1990, 247, 954-958; and Wang, G.T.; Huffker, J.A.; Matayoshi, E.; and Krafft, G.A.; Tetrahedron Lett., 1990, 165 6493-6496.
Buffer: 0.1M sodium acetate
1.0 mM ethylenediaminetetraacetic acid (EDTA)
1.0 mM dithiothreitol (DTT)
10% dimethyl sulfoxide (DMSO)
1 mg/mL bovine serum albumin (BSA) adjusted to pH 4.7
1. Prepare a solution of 2 μM HIV Protease Substrate 1 in the Assay Buffer.
2. Dispense the substrate solution into UV-pass fluorescence cuvettes (1 cm pathlength).
3. Set the excitation and emission monochromators of the spectrofluorimeter to 340 nm and 490 nm, respectively. To obtain the same kinetic constants as reported, cuvettes should be held at 37° C. throughout the assay.
4. Begin each assay by adding a small amount (<3% of the final volume) of HIV-PR-containing solution diluted tin the Assay Buffer.
5. Measure the initial rate of cleavage of fluorogenic substrate by monitoring the increase in fluorescence signal at 490 nm for 5-8 min at 37° C.
(§1) The apparent IC50 and IC50 values reported below in Table 25 were determined using the assays of Example 34 and 35, respectively. The values are indicated as follows: +=10-50 μM, ++2-10 μM, and +++<2 μM.

[2] = system: HIV IIIB; assay: XTT cell culture assay, cells infected with HIV IIIB; assay type: cell-based; settings: Human immunodeficiency virus 1, IIIB, read-out: Cell Culture IC50
Method: The method of Weislow, O.S.; Kiser, R.; Fine, D.L.; Bader, J.; Shoemaker, R.H.; and Boyd, M.R.; I. Nat. Cancer Institute, 1989, 81(8) 577-586 was applied with the following minor modifications:. Infection of cells with HIV IIIB was performed without polybrene. Cells were distributed to Microtiter wells containing the compound of the invention 4 h after infection with HIV IIIB. 2×XTT was added at 5-6 days post infection. 20 μl 2% Triton X-100 was added 1 hour after XTT addition.
1. Add 4 ml of XTT (5 mg/ml) to 8 ml of Deficient RPMI medium (no phenol red, no serum). Mix briefly at 45° C. to dissolve XTT.
2. Add 800 μl of PMS (0.2 mg/ml) to XTT/RPMI mixture.
3. Remove […] of cell free media from each well of a 96 well plate and replace with 100 μl of the XTT/PMS mixture.
4. Incubate at 37° C. for 1.5-2 h.
5. Read absorbance at 450 nm. Absorbance values are directly proportional to cell viability.
as §1

[3] = HIV protease, fluorogenic peptide substrate, pH 4.7, 37° C., read-out: Apparent Enzyme IC50
[4] = XTT assay, HIV IIIB infected cells, XTT 5-6 days post infection

Row | Compound | IC50 [1, 3] | IC50 [2, 4] | also measured
1 | [O-][S+]1CC(OCc2ccccc2)C(O)C(O)C(OCc2ccccc2)C1Cc1ccccc1 (centres unmarked) [107/3] | 2000 to 10000 nM |  | 
2 | [O-][S+]1CC(OCc2ccccc2)C(O)C(O)C(OCc2ccccc2)C1Cc1ccccc1 (centres unmarked) [107/4] | 2000 to 10000 nM | 10000 to 50000 nM | 
3 | N#Cc1ccccc1O[C@@H]1[C@H](O)[C@@H](O)[C@@H](Oc2ccccc2C#N)C[S@+]([O-])[C@@H]1Cc1ccccc1 [107/8] | 10000 to 50000 nM |  | 
4 | N#Cc1ccc(O[C@@H]2[C@H](O)[C@@H](O)[C@@H](Oc3ccc(C#N)cc3)C[S@@+]([O-])[C@@H]2Cc2ccccc2)cc1 [107/13] | 10000 to 50000 nM |  | 
5 | [O-][S+]1C(Cc2ccccc2)C(OCc2ccccc2)C(O)C(O)C(OCc2ccccc2)C1Cc1ccccc1 (centres unmarked) [108/17] |  | 2000 to 10000 nM | 
6 | O=[N+]([O-])c1cccc(CO[C@@H]2[C@H](O)[C@@H](O)C(NCc3ccccc3)C(Cc3ccccc3)S(=O)(=O)[C@@H]2Cc2ccccc2)c1 (some centres unmarked) [108/31] | < 2000 nM | 2000 to 10000 nM | 
7 | O=S1(=O)C(Cc2ccccc2)C(NCc2ccccc2)[C@H](O)[C@@H](O)[C@@H](OCc2ccccc2)[C@H]1Cc1ccccc1 (some centres unmarked) [108/34] | < 2000 nM | 2000 to 10000 nM | 
8 | O=[N+]([O-])c1cccc(COC2C(O)C(O)C(OCc3cccc([N+](=O)[O-])c3)C(Cc3ccccc3)[S+]([O-])C2Cc2ccccc2)c1 (centres unmarked) [120/44] |  |  | IC50 [2]: < 2000 nM
9 | O=[N+]([O-])c1cccc(COC2C(O)C(O)C(OCc3cccc([N+](=O)[O-])c3)C(Cc3ccccc3)S(=O)(=O)C2Cc2ccccc2)c1 (centres unmarked) [120/45] |  |  | IC50 [2]: < 2000 nM
10 | O=[N+]([O-])c1ccc(OC2C(O)C(O)C(Oc3ccc([N+](=O)[O-])cc3)C(Cc3ccccc3)S(=O)(=O)C2Cc2ccccc2)cc1 (centres unmarked) [125/17] |  |  | IC50 [2]: < 2000 nM; IC50 [1]: < 2000 nM
11 | O=[N+]([O-])c1ccc(OC2C(O)C(O)C(Oc3ccc([N+](=O)[O-])c(C(F)(F)F)c3)C(Cc3ccccc3)S(=O)(=O)C2Cc2ccccc2)cc1C(F)(F)F (centres unmarked) [125/27] |  |  | IC50 [1]: < 2000 nM

Continued, in another order:

Row | IC50 [1, 3] | IC50 [2, 4] | Compound | also measured
12 | < 2000 nM | 2000 to 10000 nM | O=S1(=O)C(Cc2ccccc2)C(NCCCc2ccccc2)[C@H](O)[C@@H](O)[C@@H](OCc2ccccc2)[C@H]1Cc1ccccc1 (some centres unmarked) [108/35] | 
13 | < 2000 nM | 2000 to 10000 nM | O=S1(=O)[C@H](Cc2ccccc2)[C@H](OCc2ccccn2)[C@H](O)[C@@H](O)[C@@H](OCc2ccccn2)[C@H]1Cc1ccccc1 [120/8] | 
14 | < 2000 nM | 2000 to 10000 nM | O=S1(=O)[C@H](Cc2ccccc2)[C@H](OCc2ccccn2)[C@H](O)[C@@H](O)[C@@H](OCc2cccc[n+]2[O-])[C@H]1Cc1ccccc1 [120/9] | 
15 |  | 10000 to 50000 nM | Cc1nc(COC2C(O)C(O)C(OCc3csc(C)n3)C(Cc3ccccc3)S(=O)(=O)C2Cc2ccccc2)cs1 (centres unmarked) [120/22] | 
16 |  | < 2000 nM | O=S1(=O)C(Cc2ccccc2)C(OCc2cncs2)C(O)C(O)C(OCc2cncs2)C1Cc1ccccc1 (centres unmarked) [120/25] | 
17 |  | < 2000 nM | Cc1cccc(COC2C(O)C(O)C(OCc3cccc(C)c3)C(Cc3ccccc3)S(=O)(=O)C2Cc2ccccc2)c1 (centres unmarked) [120/31] | 
18 |  | < 2000 nM | COc1cccc(COC2C(O)C(O)C(OCc3cccc(OC)c3)C(Cc3ccccc3)S(=O)(=O)C2Cc2ccccc2)c1 (centres unmarked) [120/34] | 
19 |  | < 2000 nM | Nc1cccc(COC2C(O)C(O)C(OCc3cccc(N)c3)C(Cc3ccccc3)S(=O)(=O)C2Cc2ccccc2)c1 (centres unmarked) [120/46] | 
20 | < 2000 nM |  | CN(C)c1nc(CO[C@@H]2[C@H](O)[C@@H](O)[C@@H](OCc3csc(N(C)C)n3)[C@@H](Cc3ccccc3)S(=O)(=O)[C@@H]2Cc2ccccc2)cs1 [125/14] | 
21 | 2000 to 10000 nM |  | Cc1ccc(OC2C(O)C(O)C(Oc3ccc(C)cn3)C(Cc3ccccc3)S(=O)(=O)C2Cc2ccccc2)nc1 (centres unmarked) [125/21] | 
22 | < 2000 nM | < 2000 nM | Nc1ccc(OC2C(O)C(O)C(Oc3ccc(N)c(C(F)(F)F)c3)C(Cc3ccccc3)S(=O)(=O)C2Cc2ccccc2)cc1C(F)(F)F (centres unmarked) [125/28] | 
23 | 10000 to 50000 nM |  | Cc1cccc(O[C@@H]2[C@H](O)[C@@H](O)[C@@H](Oc3cccc(C)n3)[C@@H](Cc3ccccc3)S(=O)(=O)[C@@H]2Cc2ccccc2)n1 [128/31] | 
24 | 10000 to 50000 nM |  | Cc1ccnc(O[C@@H]2[C@H](O)[C@@H](O)[C@@H](Oc3cc(C)ccn3)[C@@H](Cc3ccccc3)S(=O)(=O)[C@@H]2Cc2ccccc2)c1 [128/35] | 
